Test results published in US20150011466A1, “APJ Receptor Compounds” (priority 2012, published 2015).
Where a SMILES comes first, the peptide text is derived from it. [ ]: non-standard residue; d: D form. The star is where a group is joined. Palmitoyl = CCCCCCCCCCCCCCCC(=O)*

How the values were obtained:
[1] = tested on: Human TRex cells not induced, do not express the APJ receptor; test: HTRF cAMP assay in Human TRex cells not induced (no APJ receptor); format: cell-based
Description: cAMP kits based on a competitive immunoassay using cryptate-labeled anti-cAMP antibody and d2-labeled cAMP were used to assay the effects of APJ compounds of the present invention. This assay measures the increase in intracellular cAMP upon Gs-coupled receptor activation as well as decrease in forskolin (or a more soluble version of forskolin—NKH477) stimulated increase in cAMP upon Gi-coupled receptor activation. […] Cells are treated with lnG/mL doxycycline and seeded in all white 96 well plates @ 40 k/well overnight.

APJ receptor = target: T1, APJ receptor (Homo sapiens, UniProt P35414); test: HTRF cAMP assay, inhibition of NKH477 stimulated cAMP in Human TRex cells expressing APJ upon doxycycline induction (APJ-hTREX); format: cell-based; details: for Ranking: class combining EC50 and % histamine; for percent intrinsic activity at 0.3 µM: read-out: % IA (@ 300 nM)
T1 construct: expressed in transfected cells; host or cells: Human TRex cells (doxycycline-inducible)
T1 sequence (P35414 1-380): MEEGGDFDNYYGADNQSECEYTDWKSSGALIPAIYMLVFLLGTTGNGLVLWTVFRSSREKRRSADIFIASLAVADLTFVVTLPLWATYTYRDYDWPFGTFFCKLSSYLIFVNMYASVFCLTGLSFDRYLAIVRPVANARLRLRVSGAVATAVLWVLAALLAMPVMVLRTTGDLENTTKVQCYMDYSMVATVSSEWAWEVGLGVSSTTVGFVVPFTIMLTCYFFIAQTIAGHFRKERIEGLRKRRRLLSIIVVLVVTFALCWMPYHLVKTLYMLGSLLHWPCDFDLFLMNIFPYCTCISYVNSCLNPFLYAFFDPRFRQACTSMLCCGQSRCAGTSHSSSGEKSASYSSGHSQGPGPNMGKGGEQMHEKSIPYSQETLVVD
In short: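 Cells stimulated with NKH477 and cAMP measured by HTRF competitive immunoassay (cryptate anti-cAMP antibody, d2-labeled cAMP). APJ-hTREX cells induced with […] doxycycline and seeded overnight at 40 k/well.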

Gi-coupled receptor APJ = target: T2, Gi-coupled receptor APJ (Homo sapiens, UniProt P35414); test: HTRF cAMP assay, inhibition of NKH477 stimulated cAMP in HEK cells stably expressing APJ (APJ-h HEK 293 cells); format: cell-based; details: for inhibition of NKH477 stimulated increase in cAMP (concentration response curves, FIGS. 1A-1E): HEK cells stably expressing APJ
T2 sequence (P35414 1-380): T1 sequence (P35414 1-380)
Description: HTRF (homogeneous time resolved fluorescence) is a technology developed by Cisbio Bioassays based on TR-FRET (time-resolved fluorescence resonance energy transfer). Cisbio Bioassays has developed a wide selection of HTRF-based assays compatible with whole cells, thereby enabling functional assays to run under more physiological conditions. The IP-One assays are competitive immunoassays using cryptate-labeled anti-IP1 monoclonal antibody and d2-labeled IP1. IP1 is a relatively stable downstream metabolite of IP3, and accumulates in cells following Gq receptor activation.
cAMP kits based on a competitive immunoassay using cryptate-labeled anti-cAMP antibody and d2-labeled cAMP were used to assay the effects of APJ compounds of the present invention. […] Cells are treated with […] doxycycline and seeded in all white 96 well plates @ 40 k/well overnight.

[2] = target: T3, APJ receptor (β-arrestin recruitment) (Homo sapiens, UniProt P35414); test: β-Arrestin signaling assay (DiscoveRx PathHunter, enzyme fragment complementation); format: cell-based
T3 sequence (P35414 1-380): T1 sequence (P35414 1-380)
Description: Activation of the β-Arrestin signaling pathway was monitored using the commercially available DiscoveRx PathHunter® assay. This assay employs a homogenous, non-imaging assay format called Enzyme Fragment Complementation (EFC) using β-galactosidase (β-Gal) as the functional reporter. […] EA is fused to β-Arrestin and ED is fused to the GPCR of interest. When the GPCR is activated and β-Arrestin is recruited to the receptor, ED and EA complementation occurs, restoring βGal activity which is measured using chemiluminescent PathHunter® Detection Reagent.

Row | Compound | inhibition of NKH477 stimulated cAMP [1] | EC50 (APJ receptor) | Ranking (APJ receptor) | percent intrinsic activity at 0.3 µM (APJ receptor) | EC50 (Gi-coupled receptor APJ) | EC50 [2] | β-arrestin recruitment (dose dependent increase in chemiluminescence) ([2]; in words) | Emax ([2]; read-out: β-arrestin Signaling Max Response) | Histimine (% vs. 48/40) (Histimine (% vs. 48/40)) | inhibition of NKH477 stimulated increase in cAMP (concentration response curves, FIGS. 1A-1E) (Gi-coupled receptor APJ)
1 | CSCC[C@H](NC(=O)[C@@H]1CCCN1C(=O)CNC(=O)[C@H](CCCCN)NC(=O)[C@H](Cc1c[nH]cn1)NC(=O)[C@H](CO)NC(=O)[C@H](CC(C)C)NC(=O)[C@H](CCCNC(=N)N)NC(=O)[C@@H]1CCCN1C(=O)[C@H](CCCNC(=N)N)NC(=O)[C@@H](N)CCC(N)=O)C(=O)N1CCC[C@H]1C(=O)N[C@@H](Cc1ccccc1)C(=O)O [Apelin] | does not inhibit | – | – | – | – | – | – | – | – | –
2 | CCCCCCCCCCCCCCCC(=O)N[C@H](C(=O)N[C@H](C(=O)N[C@@H](Cc1c[nH]cn1)C(=O)N[C@@H](CCCNC(=N)N)C(=O)N[C@@H](CO)C(=O)N[C@@H](CO)C(=O)N[C@@H](CCC(=O)O)C(=O)N[C@H](CCCCN)C(=O)N[C@@H](CCCNC(=N)N)C(=O)N[C@@H](CCCNC(=N)N)C(=O)N[C@@H](CO)C(=O)N[C@@H](C)C(=O)N[C@@H](CC(=O)O)C(=O)N[C@H](C(=O)N[C@@H](Cc1ccccc1)C(=O)N[C@H](C(N)=O)[C@@H](C)CC)[C@@H](C)CC)C(C)C)[C@@H](C)O [Compound 9] (Palmitoyl-TVHRSSE[dK]RRSADIFI-NH2; C-terminus assumed) | – | 79.6 nM | *** (EC50<100 nM and % histamine>35%) | 75% | 79 nM | 2260 nM | weakly engaged | 22% | 36% | –
3 | CCCCCCCCCCCCCCCC(=O)N[C@H](C(=O)N[C@H](C(=O)N[C@@H](Cc1ccccc1)C(=O)N[C@@H](CCCNC(=N)N)C(=O)N[C@@H](CO)C(=O)N[C@@H](CCC(N)=O)C(=O)N[C@@H](CCC(=O)O)C(=O)N[C@H](CCCCN)C(=O)N[C@@H](CCCNC(=N)N)C(=O)N[C@@H](CCCNC(=N)N)C(=O)N[C@@H](CO)C(=O)N[C@@H](C)C(=O)N[C@@H](CC(=O)O)C(=O)N[C@H](C(=O)N[C@@H](Cc1ccccc1)C(=O)N[C@H](C(N)=O)[C@@H](C)CC)[C@@H](C)CC)C(C)C)[C@@H](C)O [Compound 24] (Palmitoyl-TVFRSQE[dK]RRSADIFI-NH2) | – | 42.6 nM | ***** (EC50<100 nM and % histamine<35%) | 70% | – | – | – | – | 22% | in a dose dependent manner
4 | CCCCCCCCCCCCCCCC(=O)NCC(=O)N[C@H](C(=O)N[C@@H](Cc1ccccc1)C(=O)N[C@@H](CCCNC(=N)N)C(=O)N[C@@H](CO)C(=O)N[C@@H](CO)C(=O)N[C@@H](CCC(=O)O)C(=O)N[C@H](CCCCN)C(=O)N[C@@H](CCCNC(=N)N)C(=O)N[C@@H](CCCNC(=N)N)C(=O)N[C@@H](CO)C(=O)N[C@@H](C)C(=O)N[C@@H](CC(=O)O)C(=O)N[C@H](C(=O)N[C@@H](Cc1ccccc1)C(=O)N[C@H](C(N)=O)[C@@H](C)CC)[C@@H](C)CC)C(C)C [Compound 68] (Palmitoyl-GVFRSSE[dK]RRSADIFI-NH2) | – | 56.4 nM | ***** (EC50<100 nM and % histamine<35%) | 69% | – | – | – | – | 21% | in a dose dependent manner
5 | CCCCCCCCCCCCCCCC(=O)N[C@H](C(=O)N[C@H](C(=O)NCC(=O)N[C@@H](CCCNC(=N)N)C(=O)N[C@@H](CO)C(=O)N[C@@H](CO)C(=O)N[C@@H](CCC(=O)O)C(=O)N[C@H](CCCCN)C(=O)N[C@@H](CCCNC(=N)N)C(=O)N[C@@H](CCCNC(=N)N)C(=O)N[C@@H](CO)C(=O)N[C@@H](C)C(=O)N[C@@H](CC(=O)O)C(=O)N[C@H](C(=O)N[C@@H](Cc1ccccc1)C(=O)N[C@H](C(N)=O)[C@@H](C)CC)[C@@H](C)CC)C(C)C)[C@@H](C)O [Compound 70] (Palmitoyl-TVGRSSE[dK]RRSADIFI-NH2) | – | 52.5 nM | ***** (EC50<100 nM and % histamine<35%) | 81% | – | – | – | – | 29% | in a dose dependent manner
